Assay results from patent publication US20130109720A1, “INDOLE INHIBITORS OF CRAC” (Hoffmann-La Roche Inc., priority 2011, published 2013).

Test system: IL-2 production in Jurkat cell
Assay: Jurkat IL-2 Production Assay
Type: cell-based
Settings: Homo sapiens, Jurkat cell (ATCC), PHA stimulation with 1% FBS or PMA/Ionomycin with 30% FBS (which one not stated), 18-20 h incubation
Protocol: Cell: Jurkat cell (ATCC) was grown in RPMI 1640 with 10% FBS and 1% penicillin/streptomycin. The cell density was kept at 1.2˜1.8×10^6/mL in culture flask before seeding into culture plate, and the cell density in the plate was 0.5×10^6/200 μL/well.
Culture media: RPMI 1640 with 1% FBS or 30% FBS for high serum assay.
Test compound: serial dilution was done in 100% DMSO, and intermediate dilution was done with RPMI 1640 medium with 1% FBS. The DMSO final concentration in culture well was 0.25%.
Stimulant: PHA (Sigma#L9017-10MG) was used for the assay with 1% FBS in culture medium, and added after 10 minutes exposure of cell to compound/DMSO. The […] final concentration in culture well was 5 μg/mL. PMA (Sigma# P-8139 5MG)/Ionomycin (Sigma# I0634-5MG) was used for the assay with 30% FBS in culture medium, and added at same time point as the 1% FBS culture assay. The final concentration of PMA was 50 ng/mL, and Ionomycin final concentration was 500 ng/mL.
Incubation: at 37° C. with 5% CO2 and 95% humidity for 18 h ˜20 h.
IC50: IC50 was calculated with the data analysis software XLfit4, General Pharmacology model 251.

Cc1cc(S(C)(=O)=O)ncc1-c1ccc2[nH]c(-c3cncc(F)c3C)cc2c1 [Example 1, 2-(5-fluoro-4-methyl-pyridin-3-yl)-5-(6-methanesulfonyl-4-methyl-pyridin-3-yl)-1H-indole]
IC50: 29 nM
